Results on two compounds are retold here after US9617264B2, “2,7-diazaspiro[3.5]nonane compounds” (REMYND NV, priority 2014, dated 2017).

Experiment [1] deals with INS-1E cells. Put plainly: Cytokine-induced apoptosis (caspase-3/7 activation, Caspase-Glo 3/7) in INS-1E rat insulinoma cells. The note with it: cytokine mix (IFN-γ, IL-1, TNF-α), 24 hours, caspase 3/7 activity, read-out: CYT EC50. It counts as cell-based. The text has this:
The INS-1E cell line, a rat insulinoma cell line, has been characterized extensively. INS-1E cells respond to glucose by secreting insulin and, unlike most other immortalized n-cell lines, they do this in a consistent manner over time. The cells are sensitive to hyperglycemia-, free fatty acid (FFA)-, and cytokine-induced stress. Prolonged stress ultimately leads to induction of apoptotic pathways and, if stress is not counter-acted, to apoptosis. Caspase-3 and -7 play a central role downstream where various apoptotic pathways merge. As such, activation (i.e. cleavage) of these caspases forms a relevant primary read-out to evaluate protective activity of compounds against stress-induced apoptosis.
To evaluate the efficacy of different compounds to prevent induction of apoptosis, an in vitro screen was developed in which INS-1E cells were exposed to a cytokine mix (IFN-γ, 5 ng/ml; IL-1, 20 pg/ml; TNF-α, 0.25 ng/ml). The degree of induction of apoptosis was evaluated using a substrate for cleaved caspase-3 and -7, i.e. a proluminescent caspase-3/7 DEVD aminoluciferin substrate with a thermostable luciferase (Caspase-Glo® 3/7 assay; Promega, cat. G8092).
On day 0, INS-1E cells were plated in a white-walled 96-well microplate (Greiner, cat. 655098) at 20,000 cells per well in 100 μl complete medium (RPMI containing 11 mM glucose supplemented with 5% FCS, 100 IU/ml penicillin, 100 μg/ml streptomycin, 10 mM HEPES, 1 mM Sodium Pyruvate and 50 μM 2-Mercapto-ethanol). On day 2, 100 μl medium containing cytokines and compound dissolved in DMSO was added to the cells. Wells without cytokines containing DMSO and wells with cytokines and DMSO were included to evaluate the degree of caspase 3/7 activation by the cytokine mix. After 24 hours exposure to cytokines and/or compound, Caspase-Glo® 3/7 reagent was added to the cells and caspase activity was determined by measuring luminescence.
To evaluate compound efficacy, the “toxicity window” was calculated by subtracting caspase activity of wells without stressor from activity of wells with stressor but without compound. The amount of caspase activity in the latter wells was normalized to 1 and used as reference. Subsequently, caspase activity in the wells with stressor and varying concentrations of compound was calculated relative to the wells without compound. Plotting caspase activity vs the log 10 of the concentration of compound permitted calculation of the EC50 values for the compounds which typically lied between 0.0001 and 10 μM. Compounds with an EC50<10 μM were considered active.

The test system of experiment [2] is db/db mice. Put plainly: In vivo evaluation in db/db mice (type 2 diabetes model). The text has this:
For in vivo evaluation of compound efficacy, male BKS.Cg-+Leprdb/Leprdb/OlaHsd mice (db/db mice—Harlan) were used. The db/db phenotype results from a mutation in the leptin receptor gene, leading to a splice variant (Chen, Charlat et al. 1996; Lee, Proenca et al. 1996). The development of type 2 diabetes in db/db mice is associated with reduced insulin levels due to progressive β-cell failure following an initial period of hypersecretion of insulin. Since these mice develop type 2 diabetes in a manner related to pathology development in humans, and the model is accepted as in vivo model for evaluation of novel anti-diabetic treatments by the Food and Drug Administration (FDA, US), it is a highly relevant model for testing candidate drugs for efficacy.
Compounds were administered intraperitoneal (IP) or oral (PO) at a dose of maximally 50 mg/kg. Mice were subjected to metabolic analysis weekly or bi-weekly. These tests included but were not limited to determination of fasting (5 hrs) and non-fasting blood glucose levels, plasma insulin levels, % glycated hemoglobin (HbA1c) levels, glucose tolerance test and insulin sensitivity test.
Treatment with Cmpd045 at 15 mg/kg PO decreased body weight (FIG. 1A).

Experiment [3] concerns M17_3SYN cells. Put plainly: Paraquat-induced cytotoxicity (LDH) in α-synuclein over-expressing M17_3SYN neuroblastoma cells. It counts as cell-based. The note with it: Homo sapiens, Neuroblastoma cell, 48 h, 6 mM Paraquat, 2 days, LDH toxicity inhibition, read-out: SYN EC50. The method, boiled down: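 Human BE-M17 neuroblastoma cells stably overexpressing wild-type human α-synuclein were challenged with 6 mM paraquat (final) for 2 days at 37° C in the presence of graded compound concentrations. Cytotoxicity was measured as released LDH relative to total LDH, and EC50 was derived from dose-inhibition curves.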

pEC50: −log10 of the molar value.

Turning to `COc1ccc(S(=O)(=O)N2CC3(CCN(S(=O)(=O)c4ccc(OC(F)F)cc4)CC3)C2)cc1` [Cmpd045, 7-((4-(Difluoromethoxy)phenyl)sulfonyl)-2-((4-methoxyphenyl)sulfonyl)-2,7-diazaspiro[3.5]nonane], the pEC50 in experiment [1] was 7.92; in experiment [3], 8.70. Besides, the body weight result in experiment [2] (15 mg/kg PO, non-fasted body weight, FIG. 1A) is “decreased”. Further, the “Fasted blood glucose levels” value in experiment [2] (fasted, FIG. 1B) is on record as “significantly lower”. Moreover, the “% HbA1c levels” value in experiment [2] (treated for 4 weeks, FIG. 1C) was “reduced”.
`O=S(=O)(c1cccs1)N1CCC2(CC1)CN(c1nc(Cc3ccc(F)cc3)ns1)C2` [Cmpd092, 3-(4-Fluorobenzyl)-5-(7-(thiophen-2-ylsulfonyl)-2,7-diazaspiro[3.5]nonan-2-yl)-1,2,4-thiadiazole]: the figures for the pEC50 in experiment [1] and in experiment [3] were 7.74 and 6.21, respectively.

Usually pEC50 stands for −log10 of the EC50, conventionally taken in molar units.
